Experimental data reported in patent publication US20250034523A1, “METHODS OF GENERATING HUMAN COCHLEAR HAIR CELLS” (THE TRUSTEES OF INDIANA UNIVERSITY, priority 2021, published 2025).

Assays:
[1] = system: PAX2-2A-nGFP/POU4F3-2A-ntdTomato hESC-derived aggregates; experiment: derivation of POU4F3+ hair cells (POU4F3-ntdTomato reporter); type: cell-based, human
Protocol: To build a PAX2-2A-nGFP/POU4F3-2A-ntdTomato multiplex reporter cell line, the POU4F3-2A-ntdTomato knockin CRISPR was performed on the PAX2-2A-nGFP genetic background. The POU4F3-2A-tdTomato-nls-bGH polyA-frt-PGK-Puro-pA-frt donor plasmid was constructed by connecting the following DNA fragments via Gibson assembly: Two 1 kb homology arms flanking the POU4F3 stop codon amplified from WA25 genomic DNA, 2A-tdTomato gBlock DNA, nls-stop-bGH pA gBlock DNA, frt-PGK-Puro-frt gBlock DNA (IDT), and a linearized pUC19 backbone. The completed donor plasmid was transfected into the PAX2-2A-nGFP parental hES cell line along with a ribonucleoprotein complex composed of a synthetic sgRNA (5′-[…]-3′ (SEQ ID NO: 30)) (Synthego) targeting the POU4F3 stop codon locus, and a high fidelity Cas9 protein (HiFi Cas9 v3, IDT). The transfection was also performed with a 4D Nucleofector (Lonza) using the P3 Primary Cell 4D-Nucleofector X kit and Program CB-150. After nucleofection, cells were plated in E8fn medium containing 1× RevitaCell (Thermo Fisher) and 1 μM of Scr7 (Xcessbio). 0.5 μg/mL puromycin selection was performed for 9 days starting from 48 h post-nucleofection. The frt-flanked PGK-Puro cassette was removed via FLPo transfection (Addgene #13793). Clonal cell line isolation and genotyping procedures were the same as PAX2-2A-nGFP CRISPR. […]

[2] = system: hair cells in hESC-derived inner ear organoids; experiment: PRESTIN immunohistochemistry of hair cells in hESC-derived inner ear organoids; type: cell-based, human; details: for PRESTIN expression / number of Prestin positive HCs: 250 ng/ml thyroxine, about day 50 to about day 100
Protocol: PAX2-2A-nGFP/POU4F3-2A-ntdTomat hESCs (passages 22-50) were maintained and passaged in Essential 8 Flex Medium (Thermo Fisher, A2858501) supplemented with 100 μg/ml Normocin (E8fn) on recombinant human Vitronectin-N(Thermo Fisher, A14700)-coated 6-well plates. Human inner ear organoids were derived from hESCs based on the inventors' previous protocol 8.10 with major modifications. Briefly, hESCs were dissociated with StemPro Accutase (Thermo Fisher, A1110501) and distributed at 3500 cells per well onto low-adhesion 96-well U-bottom plates in 100 μL E8fn containing 20 μM Y-27632 (Stemgent, 04-0012-02) and forcibly aggregated at 120 g for 5 minutes. 100 μL of E8fn was added to each well after >4 h of incubation. Induction of non-neural epithelium occurred following 48 h of aggregation, marking differentiation day 0, as follows: aggregates were washed extensively in DMEM:F12 with HEPES buffer (DFH) (Thermo Fisher, 11320033) and transferred to new 96-well U-bottom plates in 100 μL of E6 medium (Thermo Fisher, A1516401) with Normocin (E6n) containing 4 ng mL^−1 FGF-2 (StemCell Technologies, 780003), 10 μM SB-431542 (Stemgent, 04-0010-05), and 2% growth factor reduced (GFR) Matrigel (Corning, 354230). On day 3 of differentiation, 25 μL of E6n containing 50 ng/ml FGF-2 and 200 nM LDN-193189 (Stemgent, 04-0074-02) was added to each well. Culture medium was changed on days 7 and 9 with Eon containing 3 μM CHIR 99021 (Reprocell, 04-0004-10), 200 nM LDN, and 50 ng/mL FGF-2. On day 11, aggregates were washed and transferred to a Nunc Delta surface 6-well culture dish in Organoid Maturation Medium (OMM) containing 1% GFR Matrigel and 3 μM CHIR99021. OMM consists of a 50:50 mixture of Advanced DMEM:F12 (Thermo Fisher, 12634028) and Neurobasal Medium (Thermo Fisher, 21103049) supplemented with 0.5×N2 Supplement (Thermo Fisher, 17502048), 0.5×B27 minus Vitamin A (Thermo Fisher, 12587010), 1× GlutaMAX (Thermo Fisher, 35050061), 0.1 mM β-Mercaptoethanol (Thermo Fisher, 21985023), and Normocin. Control cultures were maintained in OMM+3 μM CHIR99021 until day 18 with media changes on days 13 and 15, then OMM for the remainder of the culture. Treatment cultures were supplemented with 1 μM Purmorphamine (Stemgent, 04-0009) from days 13-22, and IWP-2 (Tocris, 3533) from days 18-22, with media changes on days 15,18, and 20, then maintained in OMM for the remainder of the culture.
Aggregates were fixed with 4% paraformaldehyde for 30 min at room temperature or at 4° C. overnight. […]
Treated and control samples were processed for immunostaining simultaneously using identical reagents and protocols for each comparison. […] Raw images were analysed using Nikon GI3 suite or exported in TIFF format and analysed using ImageJ. […]

## Cl.Cl.O=S(=O)(NCCNCC=Cc1ccc(Br)cc1)c1cccc2cnccc12 [H89]
[1]; 10 μM H89 alone or combined with PUR / PUR+IWP2, D102
  efficacy in deriving POU4F3+ hair cells: none of these treatments were efficacious

## N[C@@H](Cc1cc(I)c(Oc2cc(I)c(O)c(I)c2)c(I)c1)C(=O)O [T4, thyroxine]
[2]; listed as Thyroxine
  PRESTIN expression / number of Prestin positive HCs: increases
[2]; listed as thyroxine
  PRESTIN expression / number of Prestin positive HCs: increased PRESTIN expression
[2]; T4 treated cochlear organoid cultures
  SOX2 expression in HCs: downregulated
[2]; cochlear organoid cultures, 250 ng/ml T4 from culture day 50 until D100, read at D100
  PRESTIN+HCs: ~80%

B1: BMP-4: recombinant bone morphogenic protein applied on day 0 (protein, UniProt P12644 293-408, looked up)
Bone morphogenetic protein 4: SPKHHSQRARKKNKNCRRHSLYVDFSDVGWNDWIVAPPGYQAFYCHGDCPFPLADHLNSTNHAIVQTLVNSVNSSIPKACCVPTELSAISMLYLDEYDKVVLKNYQEMVVEGCGCR
[1]; BMP-4 applied on day 0, read at D55
  proportion of POU4F3 cells: increases
